Measured values taken from ChEMBL document CHEMBL5042497, “Design, synthesis, and biological evaluation of carbamate derivatives of N-salicyloyl tryptamine as multifunctional agents for the treatment of Alzheimer's disease” (Eur J Med Chem, 2022).
Active and inactive are the calls of the source. The calls are words filed in the database; no cut-off is given here.

Key:
Acetylcholinesterase [1] = target: Acetylcholinesterase (Homo sapiens, UniProt P22303); assay: Inhibition of AChE (unknown origin)
Cholinesterase [2] = target: Cholinesterase (Equus caballus, UniProt P81908); assay: Inhibition of equine serum BChE using butyrylthiocholine iodide as substrate preincubated for 10 mins followed by substrate addition and measured after 15 mins by Ellman's method
Acetylcholinesterase [3] = target: Acetylcholinesterase (Electrophorus electricus, UniProt O42275); assay: Inhibition of electric eel AChE using acetylthiocholine iodide as substrate preincubated for 10 mins followed by substrate addition and measured for 15 mins by Ellman's method
BV-2 [4] = assay: cells; type: functional, cell-based; details: Mus musculus, BV-2, 24 h
Description: Cytotoxicity against mouse BV-2 cells assessed as reduction in cell viability measured after 24 hrs by MTT assay

HT-22 = assay: cells; type: functional, cell-based; details: Mus musculus, HT-22, 24 h
Description: Cytotoxicity against mouse HT-22 cells assessed as reduction in cell viability measured after 24 hrs by MTT assay

Cholinesterase [5] = target: Cholinesterase (Homo sapiens, UniProt P06276); assay: Inhibition of BuChE (unknown origin)
[6] = target: Amyloid-beta precursor protein (Homo sapiens) (UniProt P05067); assay: Inhibition of amyloid beta (1 to 42 ) (unknown origin) aggregation at 20 umol/L incubated for 24 hrs by thioflavin-T fluorescence method relative to control; details: dose 20.0 µmol/L
BV-2 [7] = assay: Anti-neuroinflammation in mouse BV-2 cells assessed as decrease in LPS-induced IL-6 production at 1.25 umol/L measured after 24 hrs by ELISA; type: functional, cell-based; details: dose 1.25 µmol/L
BV-2 [8] = assay: Anti-neuroinflammation in mouse BV-2 cells assessed as decrease in LPS-induced TNF-alpha production at 1.25 umol/L measured after 24 hrs by ELISA; type: functional, cell-based; details: dose 1.25 µmol/L
BV-2 [9] = assay: Anti-neuroinflammation in mouse BV-2 cells assessed as decrease in LPS-induced iNOS activity at 1.25 umol/L by fluorescence based assay; type: functional, cell-based; details: dose 1.25 µmol/L
Mus musculus [10] = assay: Anti-alzheimer activity against scopolamine-induced cognitive dysfunction mouse model assessed as […] of AChE activity in hippocampus at 5 mg/kg, po measured after 10 days by colorimetric analysis; type: functional, organism-based; details: time 10.0 day
Mus musculus [11] = assay: Anti-alzheimer activity against scopolamine-induced cognitive dysfunction mouse model assessed as change in neuron damage in hippocampal CA1 region at 5 mg/kg, po measured after 10 days by Nissl staining based assay; type: functional, organism-based; details: time 10.0 day
Mus musculus [12] = assay: Anti-alzheimer activity against scopolamine-induced cognitive dysfunction mouse model assessed as change in neuron damage in hippocampal CA3 region at 5 mg/kg, po measured after 10 days by Nissl staining based assay; type: functional, organism-based; details: time 10.0 day
BV-2 [13] = assay: Anti-neuroinflammation in mouse BV-2 cells assessed as decrease in LPS-induced IL-6 production at 12.5 umol/L measured after 24 hrs by ELISA; type: functional, cell-based; details: dose 12.5 µmol/L
BV-2 [14] = assay: Anti-neuroinflammation in mouse BV-2 cells assessed as inhibition of LPS-induced NO production at 100 to 3.125 umol/L measured after 24 hrs by Griess method; type: functional, cell-based; details: dose 100-3.125 µmol/L
Mus musculus [15] = assay: Anti-alzheimer activity against scopolamine-induced cognitive dysfunction mouse model assessed as […] of AChE activity in hippocampus at 50 to 100 mg/kg, po dosed for 10 days by colorimetric analysis; type: functional, organism-based; details: dose 50-100 mg/kg, time 10.0 day
Mus musculus [16] = assay: Anti-alzheimer activity against scopolamine-induced cognitive dysfunction mouse model assessed as change in neuron damage in hippocampal CA1 region at 50 to 100 mg/kg, po measured after 10 days by Nissl staining based assay; type: functional, organism-based; details: Hippocampus, dose 50-100 mg/kg, time 10.0 day
Mus musculus [17] = assay: Anti-alzheimer activity against scopolamine-induced cognitive dysfunction mouse model assessed as change in neuron damage in hippocampal CA3 region at 50 to 100 mg/kg, po measured after 10 days by Nissl staining based assay; type: functional, organism-based; details: Hippocampus, dose 50-100 mg/kg, time 10.0 day
BV-2 [18] = assay: Anti-neuroinflammation in mouse BV-2 cells assessed as decrease in LPS-induced TNF-alpha production at 12.5 umol/L measured after 24 hrs by ELISA; type: functional, cell-based; details: dose 12.5 µmol/L
BV-2 [19] = assay: Anti-neuroinflammation in mouse BV-2 cells assessed as decrease in LPS-induced iNOS activity at 12.5 umol/L by fluorescence based assay; type: functional, cell-based; details: dose 12.5 µmol/L

Cholinesterase (Equus caballus, UniProt P81908), sequence (P81908 whole entry): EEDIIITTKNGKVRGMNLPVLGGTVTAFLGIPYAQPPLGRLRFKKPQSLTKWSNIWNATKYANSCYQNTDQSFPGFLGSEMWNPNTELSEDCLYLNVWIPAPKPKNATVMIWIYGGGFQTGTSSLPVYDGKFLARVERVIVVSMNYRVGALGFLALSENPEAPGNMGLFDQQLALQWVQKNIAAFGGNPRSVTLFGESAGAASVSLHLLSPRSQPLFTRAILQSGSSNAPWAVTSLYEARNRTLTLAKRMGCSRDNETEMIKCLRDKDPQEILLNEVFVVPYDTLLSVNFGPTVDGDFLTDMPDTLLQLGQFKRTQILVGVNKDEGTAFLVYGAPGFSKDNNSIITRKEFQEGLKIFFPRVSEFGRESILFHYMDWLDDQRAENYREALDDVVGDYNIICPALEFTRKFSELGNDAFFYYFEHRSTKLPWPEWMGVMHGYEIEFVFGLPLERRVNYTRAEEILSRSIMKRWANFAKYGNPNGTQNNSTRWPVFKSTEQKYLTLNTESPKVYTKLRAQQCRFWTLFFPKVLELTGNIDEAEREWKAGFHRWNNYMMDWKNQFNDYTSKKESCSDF
Acetylcholinesterase (Homo sapiens, UniProt P22303), sequence (P22303 whole entry): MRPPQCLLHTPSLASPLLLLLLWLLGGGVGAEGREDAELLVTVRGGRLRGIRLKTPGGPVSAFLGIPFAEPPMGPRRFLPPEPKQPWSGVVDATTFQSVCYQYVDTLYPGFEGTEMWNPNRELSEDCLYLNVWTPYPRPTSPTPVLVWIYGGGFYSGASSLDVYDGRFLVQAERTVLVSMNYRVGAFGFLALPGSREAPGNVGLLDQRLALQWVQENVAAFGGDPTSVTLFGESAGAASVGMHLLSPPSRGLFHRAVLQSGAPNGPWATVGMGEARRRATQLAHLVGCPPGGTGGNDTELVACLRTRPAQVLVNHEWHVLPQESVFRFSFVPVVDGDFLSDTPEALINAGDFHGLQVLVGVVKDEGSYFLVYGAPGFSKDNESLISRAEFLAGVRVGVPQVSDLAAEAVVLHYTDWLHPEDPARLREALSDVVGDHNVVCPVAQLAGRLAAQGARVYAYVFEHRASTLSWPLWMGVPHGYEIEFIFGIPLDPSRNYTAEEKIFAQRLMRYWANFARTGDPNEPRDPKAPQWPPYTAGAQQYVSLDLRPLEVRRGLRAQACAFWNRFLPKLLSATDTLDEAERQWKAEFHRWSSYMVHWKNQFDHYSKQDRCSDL
Acetylcholinesterase (Electrophorus electricus, UniProt O42275), sequence (O42275 whole entry): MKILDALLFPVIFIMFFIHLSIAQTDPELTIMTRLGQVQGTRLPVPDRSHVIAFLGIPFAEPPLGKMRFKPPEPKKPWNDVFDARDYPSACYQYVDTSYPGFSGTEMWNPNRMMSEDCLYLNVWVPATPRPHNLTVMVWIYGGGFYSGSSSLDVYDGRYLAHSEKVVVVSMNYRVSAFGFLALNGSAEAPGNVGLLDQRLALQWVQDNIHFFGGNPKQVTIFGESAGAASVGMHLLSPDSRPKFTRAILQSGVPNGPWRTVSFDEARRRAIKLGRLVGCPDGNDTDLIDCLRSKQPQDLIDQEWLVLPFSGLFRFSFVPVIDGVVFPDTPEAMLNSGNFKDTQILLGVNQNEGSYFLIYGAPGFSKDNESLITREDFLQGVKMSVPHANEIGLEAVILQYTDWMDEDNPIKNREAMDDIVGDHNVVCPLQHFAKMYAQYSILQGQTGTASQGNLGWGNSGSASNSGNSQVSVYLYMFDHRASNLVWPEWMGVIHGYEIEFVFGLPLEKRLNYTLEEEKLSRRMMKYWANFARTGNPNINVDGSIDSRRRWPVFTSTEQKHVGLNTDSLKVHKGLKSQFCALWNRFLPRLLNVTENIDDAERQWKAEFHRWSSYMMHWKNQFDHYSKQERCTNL
Cholinesterase (Homo sapiens, UniProt P06276), sequence (P06276 whole entry): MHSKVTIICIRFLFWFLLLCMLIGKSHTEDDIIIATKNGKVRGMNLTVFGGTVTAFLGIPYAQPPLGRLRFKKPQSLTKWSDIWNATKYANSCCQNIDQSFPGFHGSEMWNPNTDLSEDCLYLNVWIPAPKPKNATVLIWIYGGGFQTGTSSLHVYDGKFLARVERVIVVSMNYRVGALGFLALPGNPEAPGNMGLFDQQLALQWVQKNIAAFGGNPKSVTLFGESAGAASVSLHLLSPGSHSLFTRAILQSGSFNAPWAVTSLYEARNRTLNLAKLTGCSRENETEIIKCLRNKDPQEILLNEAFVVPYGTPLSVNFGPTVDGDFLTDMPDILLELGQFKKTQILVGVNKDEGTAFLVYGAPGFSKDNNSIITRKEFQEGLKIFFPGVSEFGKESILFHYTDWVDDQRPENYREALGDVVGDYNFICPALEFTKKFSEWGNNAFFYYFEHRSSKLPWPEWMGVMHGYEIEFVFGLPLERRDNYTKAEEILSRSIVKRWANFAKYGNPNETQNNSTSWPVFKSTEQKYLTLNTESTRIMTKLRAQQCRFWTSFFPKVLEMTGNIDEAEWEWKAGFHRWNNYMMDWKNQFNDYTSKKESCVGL
Amyloid-beta precursor protein (Homo sapiens), sequence (P05067 whole entry): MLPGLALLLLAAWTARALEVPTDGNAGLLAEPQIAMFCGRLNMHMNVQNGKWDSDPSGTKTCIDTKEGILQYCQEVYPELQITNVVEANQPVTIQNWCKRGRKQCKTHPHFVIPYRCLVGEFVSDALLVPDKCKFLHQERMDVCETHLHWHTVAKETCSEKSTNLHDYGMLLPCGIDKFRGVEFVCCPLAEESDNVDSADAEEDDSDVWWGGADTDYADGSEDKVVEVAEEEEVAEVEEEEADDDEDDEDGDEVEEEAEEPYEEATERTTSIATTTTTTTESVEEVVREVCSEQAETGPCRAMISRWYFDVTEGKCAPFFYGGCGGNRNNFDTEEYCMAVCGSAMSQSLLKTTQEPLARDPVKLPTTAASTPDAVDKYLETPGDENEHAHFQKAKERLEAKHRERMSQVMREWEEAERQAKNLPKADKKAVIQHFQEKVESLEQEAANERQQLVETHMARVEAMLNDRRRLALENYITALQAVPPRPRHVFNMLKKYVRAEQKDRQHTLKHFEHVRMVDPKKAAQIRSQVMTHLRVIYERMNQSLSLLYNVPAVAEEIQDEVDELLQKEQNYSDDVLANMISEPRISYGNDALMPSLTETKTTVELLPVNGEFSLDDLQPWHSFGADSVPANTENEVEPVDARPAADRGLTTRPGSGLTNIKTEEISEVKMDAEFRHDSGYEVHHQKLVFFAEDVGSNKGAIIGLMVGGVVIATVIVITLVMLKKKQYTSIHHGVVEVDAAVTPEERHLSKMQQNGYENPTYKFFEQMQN

Structure (SMILES)	IC50 (Cholinesterase [2]) [µM]	IC50 (Acetylcholinesterase [3]) [µM]	IC50 (BV-2 [4]) [µM]	IC50 (HT-22) [µM]	further results
CN1CC[C@@]2(C)c3cc(OC(=O)Nc4ccccc4)ccc3N(C)[C@@H]12 [PHENSERINE]					IC50 (Acetylcholinesterase [1]): 1.56 µM
CCCN(CCC)C(=O)Oc1ccccc1C(=O)NCCc1c[nH]c2ccccc12	35.8	37.2	0.33	25.4	
O=C(NCCc1c[nH]c2ccccc12)c1ccccc1OC(=O)N1CCSCC1	1.44	> 100	1.53	> 100	
O=C(NCCc1c[nH]c2ccccc12)c1ccccc1OC(=O)N1CCC1	17	> 100	33.3	40.1	
O=C(NCCc1c[nH]c2ccccc12)c1ccccc1OC(=O)N1CCc2ccccc21	30	> 100	137	> 100	
CCCCN(CCCC)C(=O)Oc1ccccc1C(=O)NCCc1c[nH]c2ccccc12	8.01	34.9	116	12.8	
O=C(NCCc1c[nH]c2ccccc12)c1ccccc1OC(=O)N1CCCCCC1	24.1	> 100	32.7	25.1	
CC(C)c1ccc(NC(=O)Oc2ccc3c(c2)[C@]2(C)CCOC2O3)cc1 (stereo partly specified)					IC50 (Cholinesterase [5]): 0.027 µM
O=C(NCCc1c[nH]c2ccccc12)c1ccccc1OC(=O)N(c1ccccc1)c1ccccc1	4.73	> 100	126	> 100	
CON(C)C(=O)Oc1cccc(C(=O)NCCc2c[nH]c3ccccc23)c1	1.27	> 100	12.4	48.3	
CCN(CC)C(=O)Oc1ccccc1C(=O)NCCc1c[nH]c2ccccc12	14	68.5	32.1	57.2	
CON(C)C(=O)Oc1ccc(C(=O)NCCc2c[nH]c3ccccc23)cc1	6.61	3.11	30.3	> 100	
CN(C(=O)Oc1ccccc1C(=O)NCCc1c[nH]c2ccccc12)c1ccccc1	29.7	> 100	20.6	48.5	
O=S1(=O)OC(c2ccc(O)cc2)(c2ccc(O)cc2)c2ccccc21					inhibition [6]: 34.8%
CCNC(=O)Oc1ccc2c(c1)[C@]1(C)CCOC1O2 (stereo partly specified)					IC50 (Acetylcholinesterase [1]): 0.006 µM; IC50 (Cholinesterase [5]): 0.006 µM
O=C(NCCc1c[nH]c2ccccc12)c1ccccc1OC(=O)N1CCCC1	1.2	> 100	56	64.3	
CN(C)C(=O)Oc1ccccc1C(=O)NCCc1c[nH]c2ccccc12	3.95	16.7	35.2	75.4	
COc1cc2c(cc1OC)C(=O)C(CC1CCN(Cc3ccccc3)CC1)C2 (stereo unspecified) [DONEPEZIL]			1.54	56.4	Activity (BV-2 [7]): Active; Activity (BV-2 [8]): Active; Activity (BV-2 [9]): Active; Activity (Mus musculus [10]): Active; Activity (Mus musculus [11]): Active; Activity (Mus musculus [12]): Active
CNC(=O)Oc1ccc2c(c1)[C@]1(C)CCOC1N2C (stereo partly specified)					IC50 (Acetylcholinesterase [1]): 0.004 µM
CN1CCN(C(=O)Oc2ccccc2C(=O)NCCc2c[nH]c3ccccc23)CC1	5.14	66	49.7	92.7	
O=C(NCCc1c[nH]c2ccccc12)c1ccccc1OC(=O)N1CCCCC1	> 100	> 100	32.8	24.4	
O=C(NCCc1c[nH]c2ccccc12)c1ccccc1O	15.9	23.2	26.8	101	inhibition [6]: 19.6%; Activity (BV-2 [13]): Active; Activity (BV-2 [14]): Active; Activity (Mus musculus [15]): Active; Activity (Mus musculus [16]): Active; Activity (Mus musculus [17]): Active; Activity (BV-2 [18]): Active; Activity (BV-2 [19]): Active
CN1c2ccc(OC(=O)NCC3CCCCC3)cc2[C@]2(C)CCN(CCc3ccccc3)[C@H]12					IC50 (Acetylcholinesterase [1]): 0.0018 µM; IC50 (Cholinesterase [5]): 0.0018 µM
O=C(NCCc1c[nH]c2ccccc12)c1ccccc1OC(=O)N1CCOCC1	10	> 100	82.8	97.7	
O=C(NCCc1c[nH]c2ccccc12)c1ccccc1OC(=O)N(Cc1ccccc1)Cc1ccccc1	15.4	> 100	137	> 100	
